Data from patent US20070212723A1, “Human sodium channel isoforms” (priority 2006, published 2007).
One block for each compound: values may come before it.

How the values were obtained:
H9c2 cardiomyocytes = details: H9c2, serum free medium, 48 h
Description: The rat embryonic cardiomyocyte cell line, H9c2 (ATCC cat # CRL-1446), or acutely isolated neonatal rat heart cardiomyocytes were used. Rat neonatal ventricular cells were isolated from 3-day-old Sprague-Dawley rats (Charles River Laboratories Wilmington, Mass.) using a kit and following the manufacturer's instructions (Worthington Biochemical Corp. Lakewood, N.J.). Cells cultured in Dulbecco's modified Eagle's medium (DMEM; ATCC, Manassas, Va.) with 10% fetal calf serum (ATCC) under standard tissue culture conditions at 37° C. to 70-80% confluence were exposed to AngII (Sigma, St. Louis, Mo.) or H2O2 (Sigma) in serum free culture medium (SFM) for a total of 48 h in triplicate in 24 well plates. Experiments were repeated three times. After dissociation with 0.125% trypsin-EDTA, 20 μL of 0.4% Trypan-blue (Sigma, St. Louis, Mo.) was added to each well, and a Trypan-blue exclusion viability assay was performed.

[1] = target: T1, NF-κB binding to the scn5a promoter (Rattus norvegicus, UniProt Q63369+Q7TQN4); assay: Electrophoretic mobility shift assay with H9c2 nuclear extracts; assay type: cell-based
T1 construct: endogenous in cells; host or cells: H9c2 cardiomyocytes (nuclear extract / cross-linked chromatin)
T1 sequence (Q63369 1-433 limits assumed): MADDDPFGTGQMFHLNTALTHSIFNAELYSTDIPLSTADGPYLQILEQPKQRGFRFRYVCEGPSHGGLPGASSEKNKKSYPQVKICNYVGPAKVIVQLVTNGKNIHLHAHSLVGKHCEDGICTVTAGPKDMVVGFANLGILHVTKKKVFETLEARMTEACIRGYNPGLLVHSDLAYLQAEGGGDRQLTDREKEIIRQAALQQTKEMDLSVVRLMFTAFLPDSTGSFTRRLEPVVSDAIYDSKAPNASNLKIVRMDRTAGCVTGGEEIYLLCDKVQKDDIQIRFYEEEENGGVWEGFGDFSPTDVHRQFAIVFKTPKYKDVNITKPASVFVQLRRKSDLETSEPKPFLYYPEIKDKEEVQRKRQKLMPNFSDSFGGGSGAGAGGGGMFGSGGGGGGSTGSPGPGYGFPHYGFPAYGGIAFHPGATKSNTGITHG
T1 sequence (Q7TQN4 whole entry): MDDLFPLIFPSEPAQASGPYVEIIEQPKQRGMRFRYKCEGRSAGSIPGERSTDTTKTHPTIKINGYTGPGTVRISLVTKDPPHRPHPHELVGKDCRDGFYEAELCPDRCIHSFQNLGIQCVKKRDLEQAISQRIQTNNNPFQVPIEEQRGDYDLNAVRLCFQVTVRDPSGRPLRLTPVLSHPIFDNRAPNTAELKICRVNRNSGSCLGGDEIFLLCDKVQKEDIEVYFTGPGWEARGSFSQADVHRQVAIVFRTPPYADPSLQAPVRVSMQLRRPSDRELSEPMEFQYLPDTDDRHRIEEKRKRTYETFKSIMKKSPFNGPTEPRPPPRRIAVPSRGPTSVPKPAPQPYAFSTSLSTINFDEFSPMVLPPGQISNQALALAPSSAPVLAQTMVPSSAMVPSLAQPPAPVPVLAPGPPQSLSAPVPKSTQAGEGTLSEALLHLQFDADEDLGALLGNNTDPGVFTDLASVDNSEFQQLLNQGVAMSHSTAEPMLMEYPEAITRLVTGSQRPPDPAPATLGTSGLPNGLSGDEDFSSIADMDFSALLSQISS
Description: Approximately 5×10^6 cells were scraped for nuclear protein extraction by nuclear extract kit (Activemotif, Carlsbad, Calif.). A double-stranded oligonucleotide containing the consensus-binding sequence (bold) for […] ID NO. 32)) and NF-Kb mutant sequence ([NT] ID NO. 33)) from scn5a promoter were used as probes to assay for binding activity of the nuclear extracts. Protein-DNA complexes were detected using biotin end-labeled double-stranded DNA probes prepared by annealing complementary oligonucleotides. Oligonucleotides were labeled in a reaction using terminal deoxynucleotide transferase and biotin-N4-CTP (Pierce, Rockford, Ill.) following the biotin 3' end DNA labeling kit manual. The binding reaction was performed using the LightShift kit (Pierce). Briefly, 30 μg of nuclear extracts and binding buffer were incubated on ice for 5 min in a volume of 20 μL, then the labeled probe (20 fmol) was added, and the reaction was allowed to incubate for an additional 25 min. Following electrophoresis, the DNA-protein complexes were transferred onto nylon membranes and detected using chemiluminescence. TNF-α activated H9c2 cell nuclear extract (5 μg) was used as positive control. The reaction products were separated on a 6% retardation gel. Specificity was confirmed by addition of unlabelled probe in 200-fold excess.

[2] = target: T2, NF-κB p50/p65 subunits on the cardiac Na+ channel promoter (Rattus norvegicus, UniProt Q63369+Q7TQN4); assay: Chromatin immunoprecipitation (ChIP) assay in H9c2 cells; assay type: cell-based
T2 construct: endogenous in cells; host or cells: H9c2 cardiomyocytes (nuclear extract / cross-linked chromatin)
T2 sequence (Q63369 1-433 limits assumed): as the sequence (Q63369 1-433 limits assumed) above
T2 sequence (Q7TQN4 whole entry): as the sequence (Q7TQN4 whole entry) above
Method: Formaldehyde cross-linking and chromatin immunoprecipitation was performed as described in manufactory's manual (ChIP-IT™ kit, Activemotif). Briefly, proteins were crosslinked with chromatin using 1% formaldehyde in H9c2 cells with or without treatment. The cells were subsequently sonicated in lysis buffer, and an aliquot of the lysate was used in a PCR reaction. The remaining lysate was cleared with protein G beads. One half of the cleared lysate was incubated with p50 or p65 antibody, while the other half was used as a negative control without the antibody. After reversing the cross-linking, the immuno-complex was digested with proteinase K, and the DNA was purified. DNA was analyzed by PCR with the PicoMax Polymerase (Stratagene, La Jolla, Calif.) and primers specific to the APS3 promoter region.

[3] = test system: cardiac sodium channel (scn5a) mRNA; assay: Quantitative real-time RT-PCR of scn5a transcripts in H9c2 cells; assay type: cell-based, rat
[4] = test system: cardiac sodium channel (scn5a) mRNA; assay: Quantitative real-time RT-PCR of scn5a transcripts in acutely isolated neonatal cardiomyocytes; assay type: cell-based, rat
[5] = test system: cardiac Na+ channel current; assay: Patch-clamp determination of Na+ current in H9c2 cells; assay type: cell-based, rat; details: H9c2, 20 μmol/L H2O2, 48 h, step to -10 mV
Method: Three hours prior to the start of the patch-clamp experiments, H9c2 cells were trypsinized and plated on treated plastic coverslips. H9c2 cells were treated with or without H2O2 as indicated. Glass pipettes were pulled on a Sutter Model P-97 horizontal puller to a resistance of 0.5 to 1.5 MΩ. The glass pipettes were filled with a solution of (in mM) CsCl 60, Cesium Aspartate 80, EGTA sodium 11, HEPES 10, Na2ATP 5 and pH 7.2 with CsOH. The bath solution consisted of (in mM) Na 30, […] chloride 100, CsCl 5, CaCl2 2, MgCl2 1.2, HEPES 10, Glucose 5 and pH 7.4 with NaOH. Once a seal was established, a small amount of suction was applied to obtain the whole cell configuration. From a holding potential of −100 mV, peak currents obtained at −10 mV were used for comparison. Cells were tested at 25° C. Data were sampled at 10 kHz and later filtered at 5 kHz for analysis. Currents were recorded and analyzed with an Axopatch 200B amplifier, Axon Digidata 1230A A/D converter and pClamp software (Molecular Devices Corporation, Sunnyvale, Calif.).

scn5a promoter = assay: scn5a promoter-reporter (pGL3-APS3) dual-luciferase assay in H9c2 cells; assay type: cell-based, rat; details: APS3 construct, H9c2, 20 μM H2O2, 48 h
[6] = test system: scn5a promoter with mutated NF-κB binding site; assay: Promoter-reporter assay with mutated NF-κB binding site (APS3-NF-κBm) in H9c2 cells; assay type: cell-based, rat; details: H9c2, 48 h, 100 nM AngII or 20 μM H2O2
Na+ current = Na+ current (Homo sapiens, UniProt Q14524); details: acute exposure, dependent on PKC activation (Ward et al. 1997); cited from earlier work
Chain of Na+ current (Q14524 whole entry): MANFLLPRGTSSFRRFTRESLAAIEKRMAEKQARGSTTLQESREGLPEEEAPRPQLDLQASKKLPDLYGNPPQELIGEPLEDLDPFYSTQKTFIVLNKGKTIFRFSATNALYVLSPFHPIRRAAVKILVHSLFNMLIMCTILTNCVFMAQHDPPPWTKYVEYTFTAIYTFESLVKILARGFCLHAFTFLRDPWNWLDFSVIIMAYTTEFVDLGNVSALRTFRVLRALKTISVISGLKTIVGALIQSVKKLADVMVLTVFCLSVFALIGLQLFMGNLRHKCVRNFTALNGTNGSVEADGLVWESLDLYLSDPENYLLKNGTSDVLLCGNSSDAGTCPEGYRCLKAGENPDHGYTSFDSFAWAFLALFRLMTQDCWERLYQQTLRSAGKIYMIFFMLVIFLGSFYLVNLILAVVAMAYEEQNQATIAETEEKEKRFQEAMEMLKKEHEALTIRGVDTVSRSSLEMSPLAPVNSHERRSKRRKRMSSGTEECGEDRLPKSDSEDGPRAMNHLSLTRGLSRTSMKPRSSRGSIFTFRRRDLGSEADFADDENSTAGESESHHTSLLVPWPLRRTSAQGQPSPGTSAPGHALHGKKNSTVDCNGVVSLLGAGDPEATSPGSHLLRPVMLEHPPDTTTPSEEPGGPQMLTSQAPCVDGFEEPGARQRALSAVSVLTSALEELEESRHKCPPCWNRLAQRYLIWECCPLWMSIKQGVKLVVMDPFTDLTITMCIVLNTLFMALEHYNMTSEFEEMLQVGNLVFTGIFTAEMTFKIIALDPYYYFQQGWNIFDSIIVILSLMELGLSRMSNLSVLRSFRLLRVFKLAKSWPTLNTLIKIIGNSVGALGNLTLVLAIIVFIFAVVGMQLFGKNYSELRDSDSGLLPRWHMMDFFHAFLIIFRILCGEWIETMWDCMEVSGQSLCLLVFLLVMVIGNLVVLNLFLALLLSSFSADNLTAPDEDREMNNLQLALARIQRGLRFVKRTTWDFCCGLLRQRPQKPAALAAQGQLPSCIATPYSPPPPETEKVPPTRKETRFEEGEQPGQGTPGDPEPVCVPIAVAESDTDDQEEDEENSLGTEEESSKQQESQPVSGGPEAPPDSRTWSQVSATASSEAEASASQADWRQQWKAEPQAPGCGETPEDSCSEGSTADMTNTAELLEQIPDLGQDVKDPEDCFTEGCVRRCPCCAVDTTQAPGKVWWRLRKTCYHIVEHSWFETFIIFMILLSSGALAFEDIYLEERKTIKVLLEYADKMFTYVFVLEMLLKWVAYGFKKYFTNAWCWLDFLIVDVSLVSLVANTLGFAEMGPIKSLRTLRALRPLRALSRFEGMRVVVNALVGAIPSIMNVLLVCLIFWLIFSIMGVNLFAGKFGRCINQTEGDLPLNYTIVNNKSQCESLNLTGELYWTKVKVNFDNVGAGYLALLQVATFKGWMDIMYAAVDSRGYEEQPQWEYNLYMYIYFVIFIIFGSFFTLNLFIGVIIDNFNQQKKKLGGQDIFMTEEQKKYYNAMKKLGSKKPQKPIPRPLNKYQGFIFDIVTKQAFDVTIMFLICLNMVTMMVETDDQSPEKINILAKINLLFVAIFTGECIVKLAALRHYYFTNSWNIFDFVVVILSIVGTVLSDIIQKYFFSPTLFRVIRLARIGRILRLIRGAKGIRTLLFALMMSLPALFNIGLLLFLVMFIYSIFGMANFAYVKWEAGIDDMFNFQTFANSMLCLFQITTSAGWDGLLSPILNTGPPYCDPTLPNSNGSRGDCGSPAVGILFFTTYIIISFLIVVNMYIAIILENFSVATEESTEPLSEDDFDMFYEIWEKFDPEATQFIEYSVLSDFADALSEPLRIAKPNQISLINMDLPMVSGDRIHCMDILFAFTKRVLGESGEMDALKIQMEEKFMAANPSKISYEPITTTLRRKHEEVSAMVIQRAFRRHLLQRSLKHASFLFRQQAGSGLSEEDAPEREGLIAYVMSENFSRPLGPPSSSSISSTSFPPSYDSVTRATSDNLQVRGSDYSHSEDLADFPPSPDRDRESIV

Compound: CC[C@H](C)[C@H](NC(=O)[C@H](Cc1ccc(O)cc1)NC(=O)[C@@H](NC(=O)[C@H](CCCNC(=N)N)NC(=O)[C@@H](N)CC(=O)O)C(C)C)C(=O)N[C@@H](Cc1cnc[nH]1)C(=O)N1CCC[C@H]1C(=O)N[C@@H](Cc1ccccc1)C(=O)O [AngII, angiotensin II]
AngII concentrations tolerated (cell viability) (H9c2 cardiomyocytes): 1 to 500 nM

effect on binding of p50 and p65 subunits to the channel promoter ([2]; H9c2, CAPE): could prevent biding of both subunits
Compound: O=C(/C=C/c1ccc(O)c(O)c1)OCCc1ccccc1 [CAPE, caffeic acid phenethyl ester]
effect on NF-κB binding to scn5a promoter probe ([1]; CAPE 10 μM, H9c2 treated with H2O2): blocked

Compound: OO [H2O2]
reduction in Na+ channel mRNA ([3]; H9c2, 20 μmol/L H2O2, 48 h): 46.9%
reduction in Na+ channel mRNA ([4]; isolated neonatal rat myocytes, 40 nM H2O2, 48 h): 45.4%
decrease in peak Na+ current [5]: 46%
depression of scn5a Na+ channel promoter activity (scn5a promoter): 42.3%
change in promoter activity of construct with mutated NF-κB binding site [6]: no significant change in activity
NF-κB binding activity to scn5a promoter probe ([1]; H9c2 nuclear extracts, 48 h treatment): increased
NF-κB subunits on the cardiac Na+ channel promoter ([2]; H9c2, AngII or H2O2 treatment): formation of the complete p50-p65 NF-κB heterodimer
effect on inactivation of the Na+ current (Na+ current): slowing of inactivation

Compound: catalase
effect on AngII-mediated downregulation of Na+ channel mRNA ([3]; H9c2, pretreatment with PEG-catalase 250 U/mL, AngII 100 nM, 48 h): prevented
effect on AngII-mediated downregulation of Na+ channel mRNA ([4]; neonatal cardiomyocytes, pretreatment with PEG-catalase 250 U/mL, AngII 2 nM, 48 h): prevented
